In patent publication US20240300881A1, “PROCESS FOR PREPARATION OF LITHIUM L-THREONATE AND USE THEREOF” (XIXIOXOME BIOTHERAPEUTICS, priority 2023, published 2024):

Experiments:
schizoaffective disorder = conditions: cited from earlier work
AAD = conditions: low-dose; cited from earlier work
[1] = precipitation of lithium hydroxide from solution at different pH; format: physicochemical
Source text: L-threonic acid was selected as the ligand for lithium ion, because L-threonic acid can accelerate the absorption of the ion.

[2] = stability in high thermal condition

SMILES: NC(=O)N1c2ccccc2C=Cc2ccccc21 [carbamazepine]
- prophylactic efficacy in maintenance treatment (schizoaffective disorder): equipotent alternatives

SMILES: O=C([O-])[O-].[Li+].[Li+] [lithium carbonate]
- efficacy in treating agitation (AAD): not efficacious
- global clinical improvement (AAD): associated with global clinical improvement

SMILES: O=C([O-])[C@H](O)[C@@H](O)CO.[Li+] [lithium L-threonate]
- precipitate of lithium hydroxide ([1]; basic condition): no precipitate of lithium hydroxide
- precipitate of lithium hydroxide ([1]; small intestine (pH˜7)): no precipitate of lithium hydroxide
- dissolution in alcohol and ether (alcohol and ether): no dissolution in alcohol and ether
- dissolution in water (water): dissolution in water
- temperature of decomposition [2]: > 300 °C
